From publication PMC12373846, “Hemoglobin as a pseudoperoxidase and drug target for oxidative stress-related diseases” (Signal Transduction and Targeted Therapy, 2025)

Experiments:
[1] = ROS-Glo H2O2 assay without HRP or Hb; type: biochemical; conditions: ROS-Glo assay lacking HRP/Hb
Description: (§1) Hb (Sigma‒Aldrich, H7379), H2O2 (Sigma‒Aldrich, H1009), and Amplex Red reagents (Invitrogen, A12222) were obtained for the study. A 4 μM H2O2 solution was prepared in 50 mM sodium phosphate buffer (pH 7.2). Then, 49 μl of this mixture was mixed with 1 μl of the test compound in DMSO or distilled water. The mixture was combined with an assay mixture of Amplex Red reagent (20 mM stock to 0.1 mM) and HRP (200 U/ml stock to 0.2 U/ml) and added to the wells at 50 μl/well. After a 60-min incubation at 37 °C, resorufin production was quantified via a microplate fluorescence reader (SpectraMax iD5, Molecular Devices) at ex/em = 535/580 nm. The H2O2-decomposing activity was estimated via the following equation: (sample fluorescence-blank fluorescence)/(control […]-blank fluorescence) × 100. For the ROS-Glo assay, the H2O2 substrate solution and ROS-Glo detection solution were prepared according to the manufacturer’s instructions. 10 μM H2O2 and drugs were prepared as in the Amplex Red assay, with HRP, Hb, CAT, or GPx added as needed. The mixture was added to the wells at 100 μl/well and incubated for 60 min at 37 °C. H2O2 substrate solution was added, and the mixture was incubated at room temperature for 30 min. After the H2O2 substrate solution was added and incubated at room temperature for 30 min, the ROS-Glo detection solution was added, and the mixture was incubated for 15 min. Luminescence was measured via iD5 microplate readers. The H2O2-decomposing activity was estimated via the following equation: (sample luminescence-blank luminescence)/(control luminescence-blank luminescence) × 100. The U/ml was calculated on the basis of the amount of H2O2 reduced by Hb during the reaction, using μg/ml and U/mg.

HRP = target: T1, HRP (Armoracia rusticana, UniProt P00433); experiment: H2O2 assay with HRP (HRP-EC50); type: biochemical, horseradish; conditions: Tables S2, S3; read-out: HRP-EC50
T1 sequence (P00433 31-353): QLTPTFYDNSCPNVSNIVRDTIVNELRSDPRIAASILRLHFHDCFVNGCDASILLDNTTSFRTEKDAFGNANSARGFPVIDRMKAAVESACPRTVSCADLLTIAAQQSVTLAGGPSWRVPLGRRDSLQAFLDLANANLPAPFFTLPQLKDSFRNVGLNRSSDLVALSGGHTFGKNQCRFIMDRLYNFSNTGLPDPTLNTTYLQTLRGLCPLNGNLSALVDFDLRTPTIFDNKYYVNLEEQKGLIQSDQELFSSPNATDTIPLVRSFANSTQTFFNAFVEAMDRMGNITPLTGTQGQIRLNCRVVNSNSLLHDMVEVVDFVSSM
Description: as §1

APP/PS1 mice = experiment: Immunohistochemistry of hippocampus, APP/PS1 mice; type: in vivo, mouse; conditions: 3 mg/kg/day i.p.
Description: For an animal model of AD, both sexes of 10- to 18-month-old APP/PS1 mice were maintained and used as previously described.[76],[77] To test the effects of novel H2O2-decomposing enhancers in the AD model, the mice were treated by i.p. injection with KDS12008 (3 mg/kg/day), KDS12017 (3 mg/kg/day), or KDS12025 (3 or 10 mg/kg/day) once per day for 1 or 2 weeks, depending on the experimental protocol. All drugs were dissolved in 200 μl of saline, and the amount of each drug was calculated on the basis of the weight (kg) of the mouse. Moreover, KDS12025 (3 mg/kg/day) was orally administered to the AD model for 2 weeks ad libitum.
The mice were deeply anesthetized with vaporized 1% isoflurane and placed into stereotaxic frames (RWD Life Science, China). Following an incision on the midline of the scalp, a hole was drilled into the skull above the hippocampus. AAV-GFAP104-GFP or AAV-GFAP104-DTR-GFP was bilaterally microinjected into the hippocampal CA1 region (AP, −2.0 mm; ML, ±1.5 mm; DV, −1.65 mm from the bregma). Diphtheria toxin (2 mg/ml) was administered for 16 days as previously described.[77] For shRNA knockdown, AAV-pSicoR-Hbβ-shRNA-mCherry or AAV-pSicoR-Sc-shRNA-mCherry was microinjected into the same coordinate system. A total of 0.8 µl of the virus was injected via a syringe pump (KD Scientific, USA). The injection procedures were implemented before 5 weeks of the experiments. For cell type-specific knockdown, AAV-pSico-Hbβ-shRNA-GFP or AAV-pSico-Sc-shRNA-GFP was combined with either AAV-CaMKII-Cre-mCherry for neuronal targeting or AAV-GFAP-Cre-mCherry for astrocyte targeting. The viruses were bilaterally injected into the hippocampus and substantia nigra via the same stereotaxic coordinates and injection procedures. All viruses used in this study were produced at the Institute for Basic Science virus facility (IBS virus facility, Korea). To investigate the effects of 0.1 mg/kg/day KDS12025, GiD mice were injected with diphtheria toxin (2 mg/ml) daily for 16 days. Concurrently, KDS12025 was administered ad libitum (0.1 mg/kg/day) during the same period.
The mice were deeply anesthetized with 2% isoflurane and positioned on the operating table. After the abdomen was opened and the heart was exposed, the […] were perfused with saline, followed by 4% paraformaldehyde (PFA) in 0.1 M PBS. The mice were decapitated, and the brains were excised from the skull. Excised brains were postfixed in 4% PFA overnight at 4 °C and dehydrated in 30% sucrose for 48 h. Coronal hippocampal sections were cut at 30 µm thickness with a cryostat and stored in storage solution. For the ALS experiments, lumbar spinal cords (L2–L5) were also carefully dissected and immediately immersed in 4% PFA for postfixation. The sections were fully washed in 0.1 M PBS and incubated for 1 h in blocking solution (0.3% Triton X-100, 2% donkey and goat serum in 0.1 M PBS). Next, a mixture of primary antibodies in the blocking solution was used for immunostaining on a shaker overnight at 4 °C. The sections were washed in PBS three times. After washing, the sections were incubated with the corresponding fluorescent secondary antibodies for 1 h at RT. DAPI staining was performed by adding a DAPI solution (1:2000) during the second washing step. After the washing step was complete, the sections were mounted on cover slides with mounting medium. A series of fluorescence images were obtained with an LSM900 (Zeiss, Germany) confocal microscope or Lattice SIM Elyra 7 (Zeiss, Germany). The 15–22 μm Z stack images in 1–2 μm steps were processed for image analysis, which was performed via the ImageJ (NIH, US) and ZEN digital imaging for light microscopy blue system (Zeiss, Germany) programs.

Compound | H2O2-decomposing activity without HRP or Hb [1] | EC50 (HRP) [µM] | mean intensity of Iba1 in the hippocampus (APP/PS1 mice; Fig. S10e) | mean intensity of GFAP in the hippocampus (APP/PS1 mice; Fig. S10d)
O=C(O)c1cc(NCCc2ccc(C(F)(F)F)cc2)ccc1O [HTPEB, 2-hydroxy-5-[2-(4-trifluoromethyl-phenyl)-ethylamino]-benzoic acid, reference compound] | no activity | 1.52 |  | 
CN(C)c1ccc(NCCc2ccc(C(F)(F)F)cc2)cc1.Cl [KDS12008, N^1,N^1-dimethyl-N^4-(4-(trifluoromethyl)phenethyl)benzene-1,4-diamine hydrochloride salt] |  | 0.795 | 1562±64.27 | 2063±93.76
